Experimental data: patent publication US11920126B2, “Bio-manufacturing process” (priority 2018, dated 2024)

Columns and labels:
Ascomycete contaminants = experiment: natamycin inhibition, in vitro liquid media culture; type: cell-based; settings: cultured in vitro (liquid media)
Text: Streptomyces natalensis naturally produces low levels of pimaricin, also known as natamycin, which is a fungicide with the ability to bind to sterols found in fungal cell membranes, thus making the cell wall permeable and lysing the cell. This fungicide has greater activity against Ascomycete contaminants, versus production fungi Ganoderma or Trametes. Natamycin's affinity for non-basidiomycetes species make this particular antifungal an attractive target for expression during cultivated manufacturing.
By up-regulating the expression of pimM, the total yield of natamycin produced by our Streptomyces natalensis strains was increased. In this respect, natamycin production in wild type Streptomyces natalensis […] the effective range of inhibition (5 ug/mL) when cultured in vitro (liquid media). […] Engineering a bacterium strain with increased natamycin potency helps to reduce the bacterial loading needed for substrate bioburden mitigation, thus further reducing process and material cost.

Trichoderma = experiment: Trichoderma-loaded feedstocks co-cultured with engineered Streptomyces; type: cell-based; settings: feedstocks loaded with Trichoderma spores, no production fungus
Experimental: The efficacy of inhibitory properties was tested in feedstocks without the addition of the fungus. Feedstocks were loaded with Trichoderma spores, a common mold contaminate. Engineered Streptomyces was then co-cultured in these contaminated feedstocks, and the inhibitory effects were recorded.

SMILES: C[C@@H]1C/C=C/C=C/C=C/C=C/[C@H](O[C@@H]2O[C@H](C)[C@@H](O)[C@H](N)[C@@H]2O)C[C@@H]2O[C@](O)(C[C@@H](O)C[C@H]3O[C@@H]3/C=C/C(=O)O1)C[C@H](O)[C@H]2C(=O)O [natamycin]
- effective range of inhibition (Ascomycete contaminants): 5 µg/mL
- inhibitory effect of Trichoderma in feedstocks as a function of natamycin expression (Trichoderma): strong linear inhibitory effect
